Results on 2 compounds are retold here after patent publication US20080187492A1, “Drosophila Models For Diseases Affecting Learning and Memory” (priority 2004, published 2008).

What all share (format): in vivo, Drosophila melanogaster
Experiment [1] concerns FS (dFMR1-3+frame shifted rescue fragment) flies. The experiment in a line: Naive courtship behavior (courtship index toward virgin female), FS flies. An excerpt:
(§1) Learning and memory (cognitive abilities) can be examined in Drosophila by utilizing several available learning and memory paradigms. The most popular is a classical conditioning paradigm in which the flies learn to associate electric shocks with olfactory cues (Dudia et al, 1976; Davis, 1993; Tully, 1994). An alternative paradigm to study learning and memory in Drosophila is called conditioned courtship, wherein a male fly learns to modify his courtship behavior after experience with an unreceptive female; it is a multi-sensory paradigm involving associations from more then one sensory input (Siegel and Hall, 1979; for review see Hall, 1994). It is a more complex associative learning paradigm and was utilized to assay learning and memory in this article to elucidate the role of dFMR1 in learning and memory (Tompkins et al, 1980; Tompkins et al, 1982; Tompkins et al, 1983; Tompkins et al, 1984; Ackerman and Siegel, 1986). Courting male flies perform a characteristic sequence of behaviors: orienting toward and following the female, tapping her with his forelegs, vibrating one or both wings, licking her genitalia, and attempting copulation (Sturtevant, 1915; Bastock and Manning, 1955; Bastock, 1956). These behaviors are repeated with some variation until successful copulation occurs. Virgin females will generally respond by mating; however, recently mated females will be unreceptive and will not allow copulation to occur (Spieth, 1974), they display different behaviors (Bastock and Manning, 1955; Connolly and Cook, 1973) and have an altered, although somewhat overlapping, pheromonal profile (Cobb and Ferveur, 1996). The naive male will find a previously mated female to have a pheromonal repertoire that is less provocative then that of a virgin female target. A naive male paired with a mated female will initially court her, but his courtship activity soon decreases; after 1 hour of experience with the mated female, his courtship when subsequently paired with a virgin female remains depressed for 2-3 hours (Siegel and Hall, 1979). This effect is not a general suppression of all courtship activity since a male's tendency to court an immature male is not suppressed (Gailey et al, 1984). […] These behaviors are quantified as a courtship index (CI) which is defined as the percentage of time a male fly spends performing any of the six courtship steps toward a target female in a ten minute test period. A decrease in CI after training with a previously mated female is indicative of behavioral plasticity in the form of learning or memory.
Since we use female targets that are not etherized (therefore they are freely moving), and the w118 and dfmr1-3 flies may have slightly impaired visual acuity due to lack of eye pigmentation, and since visual inputs affect courtship behavior, all subsequent experiments were done utilizing only the genotypes Rescue: dfmr1-3+wild type rescue fragment, and FS: dfmr1-3+frame shifted rescue fragment. Both of these genotypes have more pigmentation and similar levels of eye pigmentation to each other. For FIGS. 4 and 5, a high concentration of MPEP (1,000 μg/ml) was used. For the remainder of the experiments the food was either control (CT) or exactly the same control food containing the appropriate concentration of MPEP (M). The position of the CT and the M are indicative of the point at which the group was on the particular food. The first letter indicates the food type that the larvae grew up on, and the second letter denotes the food type that the adult flies were placed on within four hours of eclosion, […] fresh food.
Naive males were placed in the training chamber for one hour with no female, and then placed with a virgin target female for a ten-minute interval. The naive courtship behavior was reduced by high MPEP concentration in Rescue (p<0.0001) and FS (p<0.0005) lines, and it was depressed to similar levels by high MPEP treatment in the Rescue and FS groups (FIG. 2A). […]

In experiment [2] the test system is Rescue (dFMR1-3+wild type rescue fragment) flies. The experiment in a line: Naive courtship behavior (courtship index toward virgin female), Rescue flies. Conditions: for naive courtship: 5 day old.
Source text: as §1
Since we use female targets that are not etherized (therefore they are freely moving), and the w118 and dfmr1-3 flies may have slightly impaired visual acuity due to lack of eye pigmentation, and since visual inputs affect courtship behavior, all subsequent experiments were done utilizing only the genotypes Rescue: dfmr1-3+wild type rescue fragment, and FS: dfmr1-3+frame shifted rescue fragment. Both of these genotypes have more pigmentation and similar levels of eye pigmentation to each other. For FIGS. 4 and 5, a high concentration of MPEP (1,000 μg/ml) was used. For the remainder of the experiments the food was either control (CT) or exactly the same control food containing the appropriate concentration of MPEP (M). The position of the CT and the M are indicative of the point at which the group was on the particular food. The first letter indicates the food type that the larvae grew up on, and the second letter denotes the food type that the adult flies were placed on within four hours of eclosion, and for the four following days, until the day before testing when they were placed on fresh food.
In order to determine if MPEP can get into the Drosophila central nervous system (CNS) through feeding behavior, we mixed MPEP into the food at a concentration of 1,000 μg/ml ([…]). Males were raised on CT food and then placed on either CT or M food. […]

Experiment [3] concerns FS (dFMR1-3+frame shifted rescue fragment) flies. The experiment in a line: Conditioned courtship: short-term memory at 60 minutes, virgin female target, FS flies. How it is done:
(§2) Short-term memory. The model was further extended to encompass short-term memory at 60 minutes after training. After the one hour training session with a previously mated female, the female is removed and the male is placed in a holding chamber for 60 minutes, then subsequently placed in a testing chamber with a virgin female target to assess short-term memory (FIG. 4C). […] CT-CT FS flies court just as vigorously at 60 minutes after training as naive CT-CT FS flies. […] The FS groups that were treated with MPEP in development alone, adulthood alone or in both development and adulthood display experience dependent reduction of courtship activity at 60 minutes after training when compared to group matched naives M-M FS, p<0.0001, CT-M FS, p<0.0001 and M-CT FS, p<0.0001. […] Additionally, flies were tested for ability to discriminate between virgin and previously mated females (FIG. 4D).
(§3) In order to examine short-term memory at 60 minutes after training, after the one hour training session with a previously mated female, the female is removed and the male is placed in a holding chamber for 60 minutes, then subsequently placed in a testing chamber with a virgin female (FIG. 9B). […] CT-CT FS flies court just as vigorously at 60 minutes after training as naive CT-CT FS flies. […] The FS groups that were treated with MPEP in development alone, adulthood alone or in both development and adulthood display experience dependent reduction of courtship activity at 60 minutes after training when compared to group matched naives M-M FS.

The test system of experiment [4] is Rescue (dFMR1-3+wild type rescue fragment) flies. The experiment in a line: Conditioned courtship: short-term memory at 60 minutes, virgin female target, Rescue flies. Conditions: 5 day old; MPEP (20 μg/ml), NaCl (5 and 50 mM), LY341495 (400 nM). How it is done: as §2, §3
The test system of experiment [5] is FS flies lacking dfmr1 activity. The experiment in a line: Short-term memory (60 mins) with mated female targets, FS flies. The procedure:
(§4) Effects of drug treatment on short-term memory (60 mins) in flies lacking dfmr1 activity with mated female targets. Short-term (60 min.) memory was measured in Rescue and FS flies that were either fed control food or underwent various drug treatments as described below. Short-term memory was measured by placing a trained male in a holding chamber for 60 minutes (after being trained for one hour with a previously mated female), then subsequently placing him in a testing chamber with a mated female target for a ten-minute courtship interval (C.I.). This C.I. was compared to the C.I. obtained for naïve courtship of a previously mated female, i.e., C.I. during the first 10 minutes of the training session with a previously mated female. Additionally, for reference the C.I. during the last 10 minutes of the training period was also determined. Numbers of flies are indicated above each bar for all groups. The levels of significance are indicated as follows; *=p<0.05; **=p<0.005; ***=p<0.0001.
(§5) Restoration of short-term memory with mGluR antagonists. To establish that the failure to observe memory was not due to a problem with recognizing or processing the appropriate cues from the virgin female target, we used a modified version of the conditioned courtship paradigm where the male is paired with a mated female target subsequent to training (Kane et al., 1997; Joiner and Griffith, 1997; Joiner and Griffith, 1999; Kamashev et al., 1999). Again, with pharmacologic treatment it is necessary to utilize more then one compound to confirm the specificity of the target, so in this case we used four mGluR antagonists. […] It is also important to note that the robust deficit in synaptic plasticity in FS flies, with regard to memory, is a critical extension of the previous models of Fragile X syndrome in model organisms, since this is one of the most prominent aspects of the human disorder. Furthermore, we have shown that antagonism of the mGluRs can restore synaptic plasticity in the Drosophila model of Fragile X syndrome.

For another experiment, the system named is Rescue flies. Nature of the experiment: Short-term memory (60 mins) with mated female targets, Rescue flies. The procedure:
as §4, §5

[6] abbreviates: 86 μM MPEP, 400 nM LY341495, 573 μM MPPG, 348 μM MTPG.
Setting [7] is: 5 day old, 8.6 mM MPEP, 400 nM LY341495.

With `[Cl-].[Na+]` [NaCl], the naive courtship entry in experiment [1] (5 day old, NaCl at 5 or 50 mM in food) is reported as “did not restore naive courtship”; in experiment [2] (LiCl 5 mM, NaCl 5 mM in food) it was “did not suppress naive courtship”; in experiment [2] (LiCl 50 mM, NaCl 50 mM in food), “suppressed naive courtship”. The short term memory entry is given as “had no effect” in experiment [3] (5 day old, NaCl (5 and 50 mM)); “did not affect short term memory” in experiment [4].
`CC(N)(C(=O)O)c1ccc(P(=O)(O)O)cc1` (racemic) [MPPG, (RS)-alpha-methyl-4-phosphoonophenylglycine]: the naive courtship activity entry in experiment [1] (5 day old adults, 573 mM MPPG (p<0.0001) or 348 μM MTPG (p<0.005)) is recorded as “significant increase in courtship activity”; in experiment [2] (5 day old adults, 573 mM MPPG or 348 μM MTPG, p<0.0001 for both), “significant decrease in courtship activity”. The short-term memory result in experiment [3] (20-day-old, concentration not given) is listed as “rescue short-term memory”. In addition, the figures for the “short-term memory, mated female target” value (in experiment [5] (setting [6]); with Rescue flies (setting [6])) were “demonstrated restoration of short-term memory” and “demonstrated intact short-term memory”, respectively. The “memory at 60 minutes post training, mated female target” value (in experiment [5] (setting [7]); in the experiment with Rescue flies (setting [7])) was “demonstrate memory at 60 minutes post training” each time.
